# Experimental data from BindingDB's records for doi:10.1021/cb500828m (Vanderbilt University, 2015).
# Target: T1, Phospholipase D1 (Homo sapiens, UniProt Q13393)
# T1 sequence (Q13393 whole entry): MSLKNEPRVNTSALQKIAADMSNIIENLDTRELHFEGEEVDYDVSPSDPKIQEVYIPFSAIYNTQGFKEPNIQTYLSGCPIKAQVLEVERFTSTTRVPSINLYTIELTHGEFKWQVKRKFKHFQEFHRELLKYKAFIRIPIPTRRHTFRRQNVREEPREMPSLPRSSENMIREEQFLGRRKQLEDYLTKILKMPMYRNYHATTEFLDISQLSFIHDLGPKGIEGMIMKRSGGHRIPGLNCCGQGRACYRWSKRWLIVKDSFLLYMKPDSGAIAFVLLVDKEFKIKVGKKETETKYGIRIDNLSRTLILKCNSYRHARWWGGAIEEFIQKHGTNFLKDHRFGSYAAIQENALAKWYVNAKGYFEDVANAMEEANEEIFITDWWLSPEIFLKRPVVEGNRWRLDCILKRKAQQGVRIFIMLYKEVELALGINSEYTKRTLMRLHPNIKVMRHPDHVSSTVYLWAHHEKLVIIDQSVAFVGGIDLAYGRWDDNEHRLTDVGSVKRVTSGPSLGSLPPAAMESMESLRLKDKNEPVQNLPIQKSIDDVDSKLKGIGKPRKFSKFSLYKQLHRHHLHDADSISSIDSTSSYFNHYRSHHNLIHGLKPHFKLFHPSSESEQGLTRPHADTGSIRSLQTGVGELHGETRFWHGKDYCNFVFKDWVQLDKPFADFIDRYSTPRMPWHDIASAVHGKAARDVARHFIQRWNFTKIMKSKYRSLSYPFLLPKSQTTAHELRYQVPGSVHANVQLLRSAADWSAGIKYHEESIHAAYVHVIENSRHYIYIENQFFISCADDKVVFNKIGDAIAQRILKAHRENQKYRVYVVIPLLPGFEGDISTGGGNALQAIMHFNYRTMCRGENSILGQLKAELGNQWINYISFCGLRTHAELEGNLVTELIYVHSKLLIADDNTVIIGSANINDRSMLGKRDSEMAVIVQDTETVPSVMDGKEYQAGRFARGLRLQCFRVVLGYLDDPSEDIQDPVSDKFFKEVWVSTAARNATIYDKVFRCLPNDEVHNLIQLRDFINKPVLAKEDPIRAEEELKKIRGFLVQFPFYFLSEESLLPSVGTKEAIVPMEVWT
# Experiment: In vivo Deuterated 1-Butanol PLD Assay
# Experimental: Cells were seeded into 12-well tissue culture plates to reach 90% confluence at the time of assay. All cell types, aside from the HEK293-gfpPLD2 cells, were serum-starved 18 h prior to experiment in DMEM, 0.5% FBS, 1% AA. Cells werepretreated in the presence of test compound (50 μM to 5 nM) or DMSO (vehicle control) in DMEM for 5 min at rt. After pretreatment, media was removed, and cells were treated with DMEM + 1 μM PMA + 0.3% 1-butanol-d10, and either test compound, DMSO vehicle control, or DMEM alone for 30 min at 37 °C. HEK293-gfpPLD2 cells were treated in the presence of DMEM + 0.3% 1-butanol-d10 and either test compound or DMSO but were not stimulated with PMA. After treatment, samples were extracted, and 1,2-dihexanoyl-snglycero-3-phosphomethanol ([…]) was added as an internal standard. The lipids were isolated, the solvent was evaporated, and the resulting lipid film was resuspended in MS solvent (9:1 methanol/chloroform + 1 μL of NH4OH). Samples were
smiles,measurement,value
Oc1ccc(-c2sc3cc(O)ccc3c2-c2ccc(OCCN3CCCCC3)cc2)cc1 [Desketoraloxifene (10)],IC50,6.1 µM
